Assay results: patent US6737383B1, “Herbicidal oxadiazolidines” (priority 1999, dated 2004)

Key:
barnyardgrass = test: Test A barnyardgrass; format: in vivo, Echinochloa crus-galli; conditions: 0 to 10 scale where 0 is no effect and 10 is complete control
In short: (§1)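 Injury scored visually after about eleven greenhouse days against untreated plants, 0 = no effect, 10 = complete control. Compounds, formulated in surfactant-containing non-phytotoxic solvent, were applied as preemergence soil drench to sandy loam plantings and as postemergence runoff spray at the 1–2 leaf stage.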

morningglory = test: Test A morningglory; format: in vivo, Ipomoea spp.; conditions: 0 to 10 scale where 0 is no effect and 10 is complete control
In short: as §1

sourgrass = test: Test D sourgrass; format: in vivo, Trichachne insularis; conditions: Preemergence, 0 to 100 scale
In short: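 Greenhouse pots, seeds in sandy loam; compounds formulated in non-phytotoxic solvent with surfactant; preemergence treatments went on the soil surface within one day of planting. Injury rated visually 14 to 21 days after application on a 0 (none) to 100 (complete control) scale.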

arrowleaf sida = test: Test C postemergence arrowleaf sida; format: in vivo, Sida rhombifolia; conditions: 0 to 100 scale, 0 no effect, 100 complete control
In short: (§2)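 Soil: sandy loam/potting mix 60:40. Treatment: postemergence, solvent + surfactant formulation. Readout: visual control score 0–100 vs untreated at ~14–21 days.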

common ragweed = test: Test C postemergence common ragweed; format: in vivo, Ambrosia elatior; conditions: 0 to 100 scale, 0 no effect, 100 complete control
In short: as §2

eastern black nightshade = test: Test C postemergence eastern black nightshade; format: in vivo, Solanum ptycanthum; conditions: 0 to 100 scale, 0 no effect, 100 complete control
In short: as §2

fall panicum = test: Test C postemergence fall panicum; format: in vivo, Panicum dichotomiflorum; conditions: 0 to 100 scale, 0 no effect, 100 complete control
Experimental: (§3) Compounds evaluated in this test were formulated in a non-phytotoxic solvent mixture which included a surfactant and applied to plants that were grown for various periods of time before treatment (postemergence application). A mixture of sandy loam soil and greenhouse potting mix in a 60:40 ratio was used for the postemergence test.
(§4) Plantings of these crops and weed species were adjusted to produce plants of appropriate size for the postemergence test. All plant species were grown using normal greenhouse practices. Crop and weed species include arrowleaf sida (Sida rhombifolia), barnyardgrass (Echinochloa crus-galli), cocklebur (Xanthium strumarium), common ragweed (Ambrosia elatior), corn (Zea mays), cotton (Gossypium hirsutum), eastern black nightshade (Solanum ptycanthum), fall panicum (Panicum dichotomiflorum), field bindweed (Convolvulus arvensis), giant foxtail (Setaria faberii), hairy beggarticks (Bidens pilosa), ivyleaf morningglory (Ipomoea hederacea), johnsongrass (Sorghum halepense), ladysthumb smartweed (Polygonum persicaria), lambsquarters (Chenopodium album), large crabgrass (Digitaria sanguinalis), purple nutsedge (Cyperus rotundus), redroot pigweed (Amaranthus retroflexus), soybean (Glycine max), surinam grass (Brachiaria decumbens), velvetleaf (Abutilon theophrasti) and wild poinsettia (Euphorbia heterophylla).
(§5) Treated plants and untreated controls were maintained in a greenhouse for approximately 14, to 21 days, after which all treated plants were compared to untreated controls and visually evaluated. Plant response ratings, summarized in Table C, were based upon a 0 to 100 scale where 0 was no effect and 100 was complete control. A dash response (−) means no test result.

hairy beggarticks = test: Test C postemergence hairy beggarticks; format: in vivo, Bidens pilosa; conditions: 0 to 100 scale, 0 no effect, 100 complete control
Experimental: as §3, §4, §5

johnsongrass = test: Test C postemergence johnsongrass; format: in vivo, Sorghum halepense; conditions: 0 to 100 scale, 0 no effect, 100 complete control
Experimental: as §3, §4, §5

lambsquarters = test: Test C postemergence lambsquarters; format: in vivo, Chenopodium album; conditions: 0 to 100 scale, 0 no effect, 100 complete control
In short: as §2

redroot pigweed = test: Test C postemergence redroot pigweed; format: in vivo, Amaranthus retroflexus; conditions: 0 to 100 scale, 0 no effect, 100 complete control
In short: as §2

velvetleaf = test: Test C postemergence velvetleaf; format: in vivo, Abutilon theophrasti; conditions: 0 to 100 scale, 0 no effect, 100 complete control
In short: as §2

green foxtail = test: Test E green foxtail; format: in vivo, Setaria viridis; conditions: Postemergence
In short: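 Each compound, carried in a non-phytotoxic solvent blend including surfactant, was applied (postemergence: over the top of young plants at 1- to 4-leaf stage). Plants stayed in the greenhouse about 21 to 28 days before visual comparison with untreated controls.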

CCN(C(=O)n1oc(=O)n(N(C)c2ccccc2)c1=O)C1CCCCC1 [Compound 183]
Plant response rating, Barnyardgrass (barnyardgrass; Postemergence, Rate 1000 g/ha): 0
Plant response rating, Barnyardgrass (barnyardgrass; Pre-emergence, Rate 2000 g/ha): 9
Plant response rating, Morningglory (morningglory; Postemergence, Rate 1000 g/ha): 0
Plant response rating, Morningglory (morningglory; Pre-emergence, Rate 2000 g/ha): 0

CCc1ccccc1-n1c(=O)on(C(=O)N(c2ccc(F)cc2)C(C)C)c1=O [Compound 34]
Plant response rating, Sourgrass (sourgrass; Rate 32 g/ha, 0 no injury, 100 complete control): 98
Sourgrass plant response rating (sourgrass; Rate 64 g/ha, 0 no injury, 100 complete control): 100
Sourgrass plant response rating (sourgrass; Rate 125 g/ha, 0 no injury, 100 complete control): 100
Plant response rating, Sourgrass (sourgrass; Rate 250 g/ha): 100

CC(C)N(C(=O)n1oc(=O)n(Cc2ccccc2)c1=O)c1ccccc1 [Compound 94]
Plant response rating Arrowleaf sida (arrowleaf sida; Rate 280 g/ha): 10
Plant response rating Arrowleaf sida (arrowleaf sida; Rate 560 g/ha): 80
Plant response rating Arrowleaf sida (arrowleaf sida; Rate 1120 g/ha): 80
Plant response rating Common ragweed (common ragweed; Rate 140 g/ha): 0
Plant response rating Common ragweed (common ragweed; Rate 280 g/ha): 0
Plant response rating Common ragweed (common ragweed; Rate 560 g/ha): 5
Plant response rating Common ragweed (common ragweed; Rate 1120 g/ha): 5
Plant response rating E. blacknightsh (eastern black nightshade; Rate 140 g/ha): 0
Plant response rating E. blacknightsh (eastern black nightshade; Rate 280 g/ha): 40
Plant response rating E. blacknightsh (eastern black nightshade; Rate 560 g/ha): 75
Plant response rating E. blacknightsh (eastern black nightshade; Rate 1120 g/ha): 95
Plant response rating Fall panicum (fall panicum; Rate 140 g/ha): 0
Plant response rating Fall panicum (fall panicum; Rate 280 g/ha): 0
Plant response rating Fall panicum (fall panicum; Rate 560 g/ha): 10
Plant response rating Fall panicum (fall panicum; Rate 1120 g/ha): 70
Plant response rating H. beggarticks (hairy beggarticks; Rate 140 g/ha): 0
Plant response rating H. beggarticks (hairy beggarticks; Rate 280 g/ha): 0
Plant response rating H. beggarticks (hairy beggarticks; Rate 560 g/ha): 5
Plant response rating H. beggarticks (hairy beggarticks; Rate 1120 g/ha): 20
Plant response rating Johnsongrass (johnsongrass; Rate 140 g/ha): 0
Plant response rating Johnsongrass (johnsongrass; Rate 280 g/ha): 0
Plant response rating Johnsongrass (johnsongrass; Rate 560 g/ha): 0
Plant response rating Johnsongrass (johnsongrass; Rate 1120 g/ha): 0
Plant response rating Lambsquarters (lambsquarters; Rate 140 g/ha): 0
Plant response rating Lambsquarters (lambsquarters; Rate 280 g/ha): 5
Plant response rating Lambsquarters (lambsquarters; Rate 560 g/ha): 10
Plant response rating Lambsquarters (lambsquarters; Rate 1120 g/ha): 30
Plant response rating, Redroot pigweed (redroot pigweed; Rate 560 g/ha): 0
Plant response rating, Redroot pigweed (redroot pigweed; Rate 1120 g/ha): 0
Plant response rating, Velvetleaf (velvetleaf; Rate 140 g/ha): 5
Plant response rating, Velvetleaf (velvetleaf; Rate 280 g/ha): 5
Plant response rating, Velvetleaf (velvetleaf; Rate 560 g/ha): 20
Plant response rating, Velvetleaf (velvetleaf; Rate 1120 g/ha): 40

CC(C)N(C(=O)n1oc(=O)n(C(C)C)c1=O)c1ccc(F)cc1F [Compound 109]
Plant response rating Arrowleaf sida (arrowleaf sida; Rate 140 g/ha): 60
Plant response rating Arrowleaf sida (arrowleaf sida; Rate 280 g/ha): 70
Plant response rating Arrowleaf sida (arrowleaf sida; Rate 560 g/ha): 85
Plant response rating Arrowleaf sida (arrowleaf sida; Rate 1120 g/ha): 95
Plant response rating Common ragweed (common ragweed; Rate 140 g/ha): 5
Plant response rating Common ragweed (common ragweed; Rate 280 g/ha): 10
Plant response rating Common ragweed (common ragweed; Rate 560 g/ha): 10
Plant response rating Common ragweed (common ragweed; Rate 1120 g/ha): 20
Plant response rating E. blacknightsh (eastern black nightshade; Rate 140 g/ha): 50
Plant response rating E. blacknightsh (eastern black nightshade; Rate 280 g/ha): 80
Plant response rating E. blacknightsh (eastern black nightshade; Rate 1120 g/ha): 95
Plant response rating Fall panicum (fall panicum; Rate 140 g/ha): 50
Plant response rating Fall panicum (fall panicum; Rate 280 g/ha): 50
Plant response rating Fall panicum (fall panicum; Rate 560 g/ha): 80
Plant response rating Fall panicum (fall panicum; Rate 1120 g/ha): 95
Plant response rating H. beggarticks (hairy beggarticks; Rate 280 g/ha): 5
Plant response rating H. beggarticks (hairy beggarticks; Rate 560 g/ha): 70
Plant response rating H. beggarticks (hairy beggarticks; Rate 1120 g/ha): 85
Plant response rating Johnsongrass (johnsongrass; Rate 140 g/ha): 0
Plant response rating Johnsongrass (johnsongrass; Rate 280 g/ha): 10
Plant response rating Johnsongrass (johnsongrass; Rate 560 g/ha): 60
Plant response rating Johnsongrass (johnsongrass; Rate 1120 g/ha): 95
Plant response rating Lambsquarters (lambsquarters; Rate 140 g/ha): 10
Plant response rating Lambsquarters (lambsquarters; Rate 280 g/ha): 10
Plant response rating Lambsquarters (lambsquarters; Rate 560 g/ha): 30
Plant response rating Lambsquarters (lambsquarters; Rate 1120 g/ha): 70
Plant response rating, Redroot pigweed (redroot pigweed; Rate 140 g/ha): 0
Plant response rating, Redroot pigweed (redroot pigweed; Rate 280 g/ha): 40
Plant response rating, Redroot pigweed (redroot pigweed; Rate 560 g/ha): 70
Plant response rating, Redroot pigweed (redroot pigweed; Rate 1120 g/ha): 85
Plant response rating, Velvetleaf (velvetleaf; Rate 140 g/ha): 10
Plant response rating, Velvetleaf (velvetleaf; Rate 280 g/ha): 20
Plant response rating, Velvetleaf (velvetleaf; Rate 560 g/ha): 50
Plant response rating, Velvetleaf (velvetleaf; Rate 1120 g/ha): 75
Plant response rating, Green foxtail (green foxtail; Rate 125 g/ha, 0 to 100 scale): 30
Plant response rating, Green foxtail (green foxtail; Rate 250 g/ha, 0 to 100 scale (0 no effect, 100 complete control)): 65
Plant response rating, Green foxtail (green foxtail; Rate 500 g/ha, 0 to 100 scale, 0 no effect, 100 complete control): 80

Cc1ccccc1-n1c(=O)on(C(=O)N(c2cc(OC(C)C)c(Cl)cc2Cl)C(C)C)c1=O [Compound 42]
Plant response rating, Barnyardgrass (barnyardgrass; Postemergence, Rate 1000 g/ha): 0
Plant response rating, Barnyardgrass (barnyardgrass; Pre-emergence, Rate 2000 g/ha): 0
Plant response rating, Morningglory (morningglory; Postemergence, Rate 1000 g/ha): 0
Plant response rating, Morningglory (morningglory; Pre-emergence, Rate 2000 g/ha): 0
